These results are taken from patent US20110053907A1, “SUBSTITUTED PYRIMIDINES AND TRIAZINES AND THEIR USE IN CANCER THERAPY” (Auckland UniServices Limited, priority 2008, published 2011).

Entries after “also recorded” stand apart in the source; their conditions may differ.

For one data set, the system named is PI3K isoforms. The conditions noted are these: literature; cited from earlier work.
The test system of data set [1] is PI 3-kinase in 3T3L1 adipocytes. Description: Cellular irreversibility assay, insulin-stimulated phosphoSer473 PKB Western blot with and without washout. In kind it is cell-based. As for the experimental part: Fully differentiated 3T3L1 adipocytes were starved overnight without serum. The following day, cells were incubated for 60 min with wortmannin (100 nM) as the positive control, LY 294002 (5 μM) as the negative control, the test compounds (1 μM), or DMSO.
To test for irreversibility, cells were then either: 1) rinsed 3 times with warm medium and incubated without an inhibitor for 30 min; or 2) maintained in the same medium containing an inhibitor.
Cells were subsequently stimulated or not with insulin (100 nM, 10 min). Finally, cells were washed twice with ice-cold Phosphate Buffer Saline (PBS) (140 mM NaCl, 3 mM KCl, 6 mM Na2HPO4, 1 mM KH2PO4 (pH 7.4)) and solubilized with a lysis buffer (20 mM Tris-HCl, 138 mM NaCl, 2.7 mM KCl, 1 mM MgCl2, 1 mM CaCl2, 5% (v/v) glycerol, 1% (v/v) Nonidet P-40 (NP40), 5 mM EDTA, 20 μM leupeptin, 18 μM pepstatin, 1 mM AEBSF, 4 μg/mL aprotinin, 2 mM Na3VO4, 20 mM NaF, 1 mM DTT (pH7.4)). Lysates were kept on ice for 20 min and insoluble material was removed by centrifugation at 14,000 g for 10 min. Protein concentration was determined by colorimetric assay (BCA, Pierce).
Proteins were separated by SDS-PAGE and transferred to polyvinylidene difluoride (PVDF) membranes (Pall Corporation, USA). The membranes were incubated for 1 hr in a blocking buffer (20 mM Tris (pH 7.4), 137 mM NaCl, 0.5% (v/v) Tween 20) containing 3% (w/v) BSA (ICP Bio, Auckland, New Zealand) or non-fat milk, and then incubated overnight in the blocking buffer containing specific antibodies (phosphoSer473 PKB and total PKB) Immunoreactive proteins were detected using horseradish peroxidase-linked secondary antibodies (Dako) and enhanced chemiluminescence (ECL) according to the manufacturer's instructions (GE Healthcare, Inc.). Signals were analyzed and quantified using Fuji LAS-3000 phosphorimager and Fuji Image Gauge software.
Overnight-starved 3T3L1 adipocytes cells were incubated for 60 min with compound of Example 4 at 1 μM (lanes 7-12). […]

The target in a further data set is p110α/p85 (Homo sapiens, UniProt P42336). Description: Reversible inhibition of isolated enzyme, lipid kinase assay. The data set is classed as biochemical. The settings on record: recombinant enzyme, 100 μM ATP, 1 hr, average of two experiments. On the procedure:
Compounds were evaluated for their ability to inhibit Class I PI 3-kinase enzymes p110δ/p85, p110α/p85, and p110β/p85. Reaction mixtures comprising 0.1 μg of a recombinant enzyme, 10 μg of L-α-phosphatidylinositol, and 2× Lipid Kinase Buffer (40 mM Tris-HCl, pH 7.4, 200 mM NaCl, 1 mM EDTA), which contains either DMSO only as a control or the test compound in DMSO (the final DMSO concentration is 1%), were activated by the addition of an ATP mix (5 mM MgCl2, 100 μM ATP, and 0.1 μL [γ^33P]ATP). Reactions were incubated at room temperature for 1 hr, and then stopped by the addition of 1M HCl. The lipids were then extracted using a two step procedure. Firstly, 200 μL of chloroform/methanol (1:1) was added, the biphasic reactions mixed and centrifuged briefly, and the inorganic phase was removed and discarded. Following this, 80 μL of methanol:HCl (1:1) was added and the same procedure followed. The organic phase (70 μL) was then transferred to a clean 1.6 mL tube and the reactions were dried using a Speedvac, with no heating, for 30 min. The reactions were spotted onto TLC plates (Merck Ltd) and developed for 1 hr in propanol-1:2 M acetic acid (13:7). The TLC plates were then dried at room temperature and quantified using a phosphorimager (StormImager, Amersham). Nine compound concentrations were used for each test compound to determine its IC50 value. Each experiment was performed twice and the average IC50 value is used herein.

Another data set has as its system NZOV9. Description: Cellular growth inhibition, 3H-thymidine incorporation. The settings on record: five days, 3H-thymidine over last 6 hrs; fifth data column. In kind it is cell-based, human. On the procedure: The compounds were evaluated against two early passage human cell lines NZB5 and NZOV9 (Marshall et al., Oncol. Res. 2004, 14, 297). The cells were grown in ITS medium (α-modified minimal essential medium supplemented insulin, transferrin, selenite, and 5% fetal bovine serum) and grown on 96-well tissue culture plates under an atmosphere of 5% O2, 5% CO2, and 90% N2. Individual wells contained 500-1,000 cells (depending on the growth rate) in a volume of 150 μL. Compounds were added at 10-fold concentration steps to a maximum of 20 μM and plates were incubated for five days, with ^3H-thymidine being added over the last 6 hrs. Cells were harvested and incorporated radioactivity measured. Duplicate samples were analyzed for each compound dose with multiple control samples. Data were fitted by a least-squares method to an exponential of the form y=y0+ae^−bx, where y is the radioactivity (corrected for background and normalized to 100% of the control), x is the […], and y0, a, and b are variables, and the IC50 value defined as the compound concentration reducing ^3H-thymidine levels by 50%.

A further data set concerns human tumour xenografts. The conditions noted are these: mouse, in vivo; cited from earlier work.

Sequence of p110α/p85 (P42336 whole entry): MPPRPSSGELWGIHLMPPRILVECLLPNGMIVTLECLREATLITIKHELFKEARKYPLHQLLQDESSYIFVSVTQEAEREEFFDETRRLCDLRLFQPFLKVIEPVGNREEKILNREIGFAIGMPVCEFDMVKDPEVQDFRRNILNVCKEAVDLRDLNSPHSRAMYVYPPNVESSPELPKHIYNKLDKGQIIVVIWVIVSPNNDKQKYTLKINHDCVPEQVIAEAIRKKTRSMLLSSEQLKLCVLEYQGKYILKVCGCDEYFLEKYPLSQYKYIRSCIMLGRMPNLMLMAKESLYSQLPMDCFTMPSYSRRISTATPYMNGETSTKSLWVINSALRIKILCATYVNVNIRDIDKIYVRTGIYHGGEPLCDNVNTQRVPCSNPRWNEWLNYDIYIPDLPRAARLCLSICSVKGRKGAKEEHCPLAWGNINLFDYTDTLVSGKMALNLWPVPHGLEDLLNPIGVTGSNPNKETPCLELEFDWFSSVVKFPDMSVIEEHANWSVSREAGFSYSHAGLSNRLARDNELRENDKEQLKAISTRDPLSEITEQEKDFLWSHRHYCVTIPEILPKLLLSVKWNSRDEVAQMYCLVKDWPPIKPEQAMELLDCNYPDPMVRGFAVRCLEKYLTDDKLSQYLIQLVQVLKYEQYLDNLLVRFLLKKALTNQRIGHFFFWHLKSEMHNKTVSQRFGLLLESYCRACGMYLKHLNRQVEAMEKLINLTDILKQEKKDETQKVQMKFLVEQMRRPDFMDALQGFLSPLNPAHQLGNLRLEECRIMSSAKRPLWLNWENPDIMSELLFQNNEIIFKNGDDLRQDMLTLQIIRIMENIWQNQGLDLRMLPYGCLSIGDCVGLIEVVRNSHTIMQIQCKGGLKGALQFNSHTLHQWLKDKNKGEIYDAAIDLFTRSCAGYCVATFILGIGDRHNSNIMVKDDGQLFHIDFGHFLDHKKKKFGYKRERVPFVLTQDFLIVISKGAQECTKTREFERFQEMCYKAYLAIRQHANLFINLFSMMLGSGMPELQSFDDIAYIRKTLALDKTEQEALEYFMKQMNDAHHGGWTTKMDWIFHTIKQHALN
Sequence of p110α/p85 (P27986 whole entry partner): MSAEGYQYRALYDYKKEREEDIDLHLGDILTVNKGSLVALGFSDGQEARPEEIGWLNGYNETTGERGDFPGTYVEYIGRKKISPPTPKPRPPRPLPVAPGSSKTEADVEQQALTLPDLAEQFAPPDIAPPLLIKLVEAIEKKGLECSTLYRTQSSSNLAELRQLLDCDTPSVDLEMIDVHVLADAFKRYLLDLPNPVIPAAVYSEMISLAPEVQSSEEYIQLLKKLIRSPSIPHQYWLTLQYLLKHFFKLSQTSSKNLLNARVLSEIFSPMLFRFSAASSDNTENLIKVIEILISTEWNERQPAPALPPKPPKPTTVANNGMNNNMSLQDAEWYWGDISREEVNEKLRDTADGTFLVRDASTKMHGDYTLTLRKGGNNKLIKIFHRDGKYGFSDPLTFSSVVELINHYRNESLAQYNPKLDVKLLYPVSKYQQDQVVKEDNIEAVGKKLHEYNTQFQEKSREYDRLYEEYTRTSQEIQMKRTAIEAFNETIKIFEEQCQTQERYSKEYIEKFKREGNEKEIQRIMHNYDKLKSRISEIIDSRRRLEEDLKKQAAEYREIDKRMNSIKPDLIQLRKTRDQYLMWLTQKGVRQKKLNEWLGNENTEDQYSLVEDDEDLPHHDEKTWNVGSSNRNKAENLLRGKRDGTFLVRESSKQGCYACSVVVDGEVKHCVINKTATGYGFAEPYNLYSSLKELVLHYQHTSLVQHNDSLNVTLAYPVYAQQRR

For `O=C1NC(=O)/C(=C\c2ccc3nccnc3c2)S1` [AS605240], in the data set with PI3K isoforms, the PI3K isoform selectivity result is on record as “γ-selective”.
One may read the melting point as the temperature of the solid-liquid transition. In turn, `COc1cccc2c1nc(C(F)F)n2-c1nc(N2CCOCC2)nc(N2CCN(C(=O)CCl)CC2)n1` [Example 4, 1-[4-[4-(Chloroacetyl)-1-piperazinyl]-6-(4-morpholinyl)-1,3,5-triazin-2-yl]-2-(difluoromethyl)-4-methoxy-1H-benzimidazole] yielded a melting point of 241 to 243 °C. For the same compound, in data set [1] (1 μM, 60 min, compound left on cells, insulin 100 nM, 10 min (lanes 7-9)), the “insulin-stimulated phosphorylation of PKB (phosphoSer473)” value is “attenuated”. In addition, the “insulin-stimulated phosphorylation of PKB (phosphoSer473) after washout” value in data set [1] (1 μM, 60 min, rinsed 3 times, 30 min without compound, insulin 100 nM, 10 min (lanes 10-12)) was “attenuated”. In addition, in data set [1] (3T3L1 adipocytes, FIG. 1), the “irreversible binding to PI 3-kinase” value is listed as “irreversible binding; also recorded: irreversibly bound PI 3-kinase in the cells”.
By IC50 is commonly meant the midpoint of a concentration-inhibition curve. Consider `COc1cccc2c1nc(C(F)F)n2-c1nc(N[C@@H]2CCCN(C(=O)CCl)C2)nc(N2CCOCC2)n1` [Example 37], for which the melting point was 190 to 192 °C. Besides, the IC50 on p110α/p85 is < 100 nM.
Turning to `COc1cccc2c1nc(C(F)F)n2-c1nc(N2CCOCC2)nc(N(C)[C@@H]2CCCN(C(=O)CCl)C2)n1` [Example 39, N-[(3R)-1-(chloroacetyl)piperidinyl]-4-[2-(difluoromethyl)-4-methoxy-1H-benzimidazol-1-yl]-N-methyl-6-(4-morpholinyl)-1,3,5-triazin-2-amine], in the data set with NZOV9, the half-maximal inhibitory concentration (IC50) is < 100 nM.
In the case of `COc1cccc2c1nc(C(F)F)n2-c1nc(N2CCOCC2)nc(N2CC(NC(=O)CCl)C2)n1` [Example 41, 2-chloro-N-{1-[4-[2-(difluoromethyl)-4-methoxy-1H-benzimidazol-1-yl]-6-(4-morpholinyl)-1,3,5-triazin-2-yl]-3-azetidinyl}acetamide], the melting point fell in the range of 272 to 275 °C. Moreover, the half-inhibitory concentration (IC50) on p110α/p85 is < 100 nM.
For the compound `COc1cccc2c1nc(C(F)F)n2-c1nc(N2CCOCC2)nc(N2CC(N(C)C(=O)CCl)C2)n1` [Example 42, 2-chloro-N-{1-[4-[2-(difluoromethyl)-4-methoxy-1H-benzimidazol-1-yl]-6-(4-morpholinyl)-1,3,5-triazin-2-yl]-3-azetidinyl}-N-methylacetamide], the melting point was 233 to 236 °C. Besides, the concentration for half-maximal inhibition (IC50) on p110α/p85 was < 100 nM.
With `COc1cccc2c1nc(C(F)F)n2-c1nc(NC2CN(C(=O)CCl)C2)nc(N2CCOCC2)n1` [Example 43, N-[1-(chloroacetyl)-3-azetidinyl]-4-[2-(difluoromethyl)-4-methoxy-1H-benzimidazol-1-yl]-6-(4-morpholinyl)-1,3,5-triazin-2-amine], the melting point lay within 219 to 221 °C. The IC50 on p110α/p85 is < 100 nM.
The like results for `COc1cccc2c1nc(C(F)F)n2-c1nc(N2CCOCC2)nc(N(C)C2CN(C(=O)CCl)C2)n1` [Example 44, N-[1-(chloroacetyl)-3-azetidinyl]-4-[2-(difluoromethyl)-4-methoxy-1H-benzimidazol-1-yl]-N-methyl-6-(4-morpholinyl)-1,3,5-triazin-2-amine] were, in that order, 220 to 222 °C and < 100 nM.
The like results for `COc1cccc2c1nc(C(F)F)n2-c1nc(OC2CCN(C(=O)CCl)CC2)nc(N2CCOCC2)n1` [Example 45, 1-[4-{[1-(chloroacetyl)-4-piperidinyl]oxy}-6-(4-morpholinyl)-1,3,5-triazin-2-yl]-2-(difluoromethyl)-4-methoxy-1H-benzimidazole] were, in that order, 170 to 172 °C and < 100 nM.
The like results for `COc1cccc2c1nc(C(F)F)n2-c1nc(N2CCOCC2)c2cnn(C3CCN(S(=O)(=O)CCl)CC3)c2n1` [Example 48, 1-{1-[(chloromethyl)sulfonyl]-4-piperidinyl}-6-[2-(difluoromethyl)-4-methoxy-1H-benzimidazol-1-yl]-4-(4-morpholinyl)-1H-pyrazolo[3,4-d]pyrimidine] were, in that order, 250 to 253 °C and < 100 nM.
As to `Cc1ccccc1-n1c(Cn2cnc3c(N)ncnc32)nc2cccc(C)c2c1=O` [IC87114], in the data set with PI3K isoforms, the PI3K isoform selectivity entry was “δ-selective”.
Turning to `O=c1cc(N2CCOCC2)oc2c(-c3ccccc3)cccc12` [LY294002], in the data set on human tumour xenografts, the tolerability entry was “well-tolerated”.
For `Oc1cccc(-c2nc(N3CCOCC3)c3oc4ncccc4c3n2)c1` [PI103], in the data set with PI3K isoforms, the PI3K isoform selectivity entry is listed as “slightly α-selective”.
For the compound `C=CCN(/C=C1/C(=O)O[C@H](COC)[C@@]2(C)C1=C(O)C(=O)C1=C2[C@H](OC(C)=O)C[C@]2(C)C(=O)CC[C@@H]12)CC=C` [PX-866], in the data set on PI3K isoforms, the PI3K isoform selectivity result was “not selective for individual PI3K isoforms” and the “mode of PI3K inhibition (reversible / irreversible)” value is recorded as “irreversible activity”.
On to `Cc1cc(C(C)Nc2ccccc2)c2nc(N3CCOCC3)cc(=O)n2c1` (stereo not shown) [TGX221], for which the PI3K isoform selectivity entry in the data set on PI3K isoforms is reported as “β-selective”.
Take `FC(F)c1nc2ccccc2n1-c1nc(N2CCOCC2)nc(N2CCOCC2)n1` [ZSTK474]: the PI3K isoform selectivity result with PI3K isoforms is on record as “non-selective”.
As to “N-[(3S)-1-(chloroacetyl)piperidinyl]-4-[2-(difluoromethyl)-4-methoxy-1H-benzimidazol-1-yl]-N-methyl-6-(4-morpholinyl)-1,3,5-triazin-2-amine [Example 40]”, the half-inhibitory concentration (IC50) with NZOV9 was < 100 nM.
